In ChEMBL document CHEMBL2407067, “Pyridone-conjugated monobactam antibiotics with gram-negative activity” (J Med Chem, 2013) one finds MIC, MIC50 and MIC90 data, which are given here for 13 molecules.

≈ marks a conversion by molar mass, not a printed value. A value given as a limit tells only on which side of the number the result lay.

For one assay, the system named is Acinetobacter baumannii. The assay is described as follows: Antibacterial activity against Acinetobacter baumannii AB-3167 by broth microdilution method. It is filed as functional. A general note: In broth dilution the organism is exposed to a series of concentrations in liquid medium.
In assay [1] the test system is Klebsiella pneumoniae. Put plainly: Antibacterial activity against Klebsiella pneumoniae 1487-07 by broth microdilution method. The class given is functional.
The test system of assay [2] is Klebsiella pneumoniae. The assay is described as follows: Antibacterial activity against Klebsiella pneumoniae 1000-02 by broth microdilution method. It is filed as functional.
The test system of assay [3] is Pseudomonas aeruginosa. The assay is described as follows: Antibacterial activity against Pseudomonas aeruginosa 1042-06 by broth microdilution method. It is filed as functional.
Assay [4] concerns Pseudomonas aeruginosa. The assay is described as follows: microbe, parasite or virus in culture. The following applies: 1091-05.
Description: Antibacterial activity against Pseudomonas aeruginosa 1091-05 by broth microdilution method
In assay [5] the test system is Pseudomonas aeruginosa. The assay is described as follows: Antibacterial activity against Pseudomonas aeruginosa from cystic fibrosis patients by broth microdilution method. The class given is functional.
For the next assay, the system named is Acinetobacter sp. The assay is described as follows: Antibacterial activity against Acinetobacter spp. by broth microdilution method. The class given is functional.
Assay [6] concerns Escherichia coli. The assay is described as follows: Antibacterial activity against Escherichia coli expressing defined beta-lactamase by broth microdilution method. It is filed as functional.
The test system of assay [7] is Escherichia coli. The assay is described as follows: Antibacterial activity against Escherichia coli expressing CTX-M by broth microdilution method. It is filed as functional.
In assay [8] the test system is Escherichia coli. The assay is described as follows: Antibacterial activity against Escherichia coli expressing ESBL by broth microdilution method. It is filed as functional.
Assay [9] concerns Klebsiella pneumoniae. Put plainly: Antibacterial activity against Klebsiella pneumoniae expressing ESBL by broth microdilution method. It is filed as functional.
Assay [10] relates to Klebsiella pneumoniae. The assay is described as follows: Antibacterial activity against Klebsiella pneumoniae expressing defined beta-lactamase by broth microdilution method. It is filed as functional.
The subject of assay [11] is Pseudomonas aeruginosa. Put plainly: Antibacterial activity against Pseudomonas aeruginosa expressing metallo-beta-lactamase by broth microdilution method. The class given is functional.
In assay [12] the test system is Klebsiella pneumoniae. Put plainly: Antibacterial activity against Klebsiella pneumoniae expressing KPC by broth microdilution method. The class given is functional.

In the case of `Nc1nc(/C(=N/OCc2nnn[nH]2)C(=O)N[C@@H]2C(=O)N(S(=O)(=O)O)[C@@H]2CNC(=O)NCc2cc(=O)c(O)cn2O)cs1`, the MIC against Acinetobacter baumannii is 0.5 µg/mL (≈ 0.795 µM); with Klebsiella pneumoniae [1], 32 µg/mL (≈ 50.9 µM); with Klebsiella pneumoniae [2], 8 µg/mL (≈ 12.7 µM); against Pseudomonas aeruginosa [3] it was 16 µg/mL (≈ 25.5 µM); against Pseudomonas aeruginosa [4], 0.5 µg/mL (≈ 0.795 µM).

With `Nc1nc(/C(=N/Oc2ccccc2)C(=O)N[C@@H]2C(=O)N(S(=O)(=O)O)[C@@H]2CNC(=O)NCc2cc(=O)c(O)cn2O)cs1`, the MIC is 0.5 µg/mL (≈ 0.803 µM) against Acinetobacter baumannii; more than 64 µg/mL against Klebsiella pneumoniae [1]; more than 64 µg/mL in the assay with Klebsiella pneumoniae [2]; 16 µg/mL (≈ 25.7 µM) in the assay on Pseudomonas aeruginosa [3]; 0.5 µg/mL (≈ 0.803 µM) against Pseudomonas aeruginosa [4].

For `Nc1nc(/C(=N/OC2CCCC2)C(=O)N[C@@H]2C(=O)N(S(=O)(=O)O)[C@@H]2CNC(=O)NCc2cc(=O)c(O)cn2O)cs1`, the MIC against Acinetobacter baumannii is 1 µg/mL (≈ 1.63 µM); in the assay with Klebsiella pneumoniae [1], 32 µg/mL (≈ 52.1 µM); in the assay on Klebsiella pneumoniae [2], 8 µg/mL (≈ 13 µM); with Pseudomonas aeruginosa [3], 16 µg/mL (≈ 26 µM); against Pseudomonas aeruginosa [4] it was 1 µg/mL (≈ 1.63 µM).

For the molecule `Nc1nc(/C(=N/OCc2cscn2)C(=O)N[C@@H]2C(=O)N(S(=O)(=O)O)[C@@H]2CNC(=O)NCc2cc(=O)c(O)cn2O)cs1`, the MIC in the assay with Acinetobacter baumannii is 1 µg/mL (≈ 1.55 µM); in the assay on Klebsiella pneumoniae [1], 16 µg/mL (≈ 24.9 µM); against Klebsiella pneumoniae [2], 16 µg/mL (≈ 24.9 µM); with Pseudomonas aeruginosa [3], more than 64 µg/mL; in the assay on Pseudomonas aeruginosa [4], 1 µg/mL (≈ 1.55 µM).

On to `Nc1nc(/C(=N/OCCO)C(=O)N[C@@H]2C(=O)N(S(=O)(=O)O)[C@@H]2CNC(=O)NCc2cc(=O)c(O)cn2O)cs1`, for which the MIC with Acinetobacter baumannii worked out at 0.5 µg/mL (≈ 0.847 µM); against Klebsiella pneumoniae [1], 32 µg/mL (≈ 54.2 µM); in the assay on Klebsiella pneumoniae [2], 32 µg/mL (≈ 54.2 µM); against Pseudomonas aeruginosa [3], 16 µg/mL (≈ 27.1 µM); in the assay on Pseudomonas aeruginosa [4], 0.5 µg/mL (≈ 0.847 µM).

For `CC(C)(O/N=C(\C(=O)N[C@@H]1C(=O)N(S(=O)(=O)O)[C@@H]1CNS(=O)(=O)NCc1cc(=O)c(O)cn1O)c1csc(N)n1)C(=O)O`, the MIC against Acinetobacter baumannii came to 1 µg/mL (≈ 1.5 µM); against Klebsiella pneumoniae [1], 32 µg/mL (≈ 47.9 µM); against Pseudomonas aeruginosa [3], 16 µg/mL (≈ 23.9 µM); with Pseudomonas aeruginosa [4], 1 µg/mL (≈ 1.5 µM).

`CC(C)(O/N=C(\C(=O)N[C@@H]1C(=O)N(S(=O)(=O)O)[C@@H]1Cn1cc(-c2cc(=O)c(O)cn2O)nn1)c1csc(N)n1)C(=O)O`: the MIC against Acinetobacter baumannii and against Pseudomonas aeruginosa [4] was 0.125 µg/mL (≈ 0.199 µM) throughout.

As for `CC(C)(O/N=C(\C(=O)N[C@@H]1C(=O)N(S(=O)(=O)O)[C@@H]1CNc1cc(C(=O)NCc2cc(=O)c(O)cn2O)ccn1)c1csc(N)n1)C(=O)O`, the figures for the MIC against Acinetobacter baumannii, in the assay with Klebsiella pneumoniae [1] and in the assay with Pseudomonas aeruginosa [3] were 0.125 µg/mL (≈ 0.176 µM), 16 µg/mL (≈ 22.5 µM) and 1 µg/mL (≈ 1.41 µM), respectively.

Take `Nc1nc(/C(=N/OCC(=O)O)C(=O)N[C@@H]2C(=O)N(S(=O)(=O)O)[C@@H]2CNC(=O)NCc2cc(=O)c(O)cn2O)cs1`: the figures for the MIC against Klebsiella pneumoniae [1], against Pseudomonas aeruginosa [3] and against Pseudomonas aeruginosa [4] were 8 µg/mL (≈ 13.2 µM), 4 µg/mL (≈ 6.62 µM) and 0.125 µg/mL (≈ 0.207 µM), respectively.

As to `CC(C)C[C@H](O/N=C(\C(=O)N[C@@H]1C(=O)N(S(=O)(=O)O)[C@@H]1CNC(=O)NCc1cc(=O)c(O)cn1O)c1csc(N)n1)C(=O)O`, the MIC is 1 µg/mL (≈ 1.51 µM) in the assay with Acinetobacter baumannii, 1 µg/mL (≈ 1.51 µM) in the assay on Klebsiella pneumoniae [1], 16 µg/mL (≈ 24.2 µM) against Pseudomonas aeruginosa [3] and 1 µg/mL (≈ 1.51 µM) with Pseudomonas aeruginosa [4].

As for `Nc1nc(/C(=N/O[C@@H](Cc2ccccc2)C(=O)O)C(=O)N[C@@H]2C(=O)N(S(=O)(=O)O)[C@@H]2CNC(=O)NCc2cc(=O)c(O)cn2O)cs1`, the values for the MIC with Klebsiella pneumoniae [1], with Pseudomonas aeruginosa [3] and with Pseudomonas aeruginosa [4] were 1 µg/mL (≈ 1.44 µM), 8 µg/mL (≈ 11.5 µM) and 1 µg/mL (≈ 1.44 µM), respectively.

As for `O=C(O)c1cn(C2CC2)c2cc(N3CCNCC3)c(F)cc2c1=O` [CIPROFLOXACIN], the MIC50 with Pseudomonas aeruginosa [5] is 2 µg/mL (≈ 6.04 µM); against Acinetobacter sp., 0.5 µg/mL (≈ 1.51 µM); in the assay with Escherichia coli [6], 0.03 µg/mL (≈ 0.0905 µM); in the assay on Escherichia coli [8] it was more than 64 µg/mL; with Klebsiella pneumoniae [9], 0.25 µg/mL (≈ 0.754 µM); against Klebsiella pneumoniae [10], 0.5 µg/mL (≈ 1.51 µM). Moreover, the MIC50 in the assay with Pseudomonas aeruginosa [11] was 32 µg/mL (≈ 96.6 µM). The MIC90 is 16 µg/mL (≈ 48.3 µM) against Pseudomonas aeruginosa [5]; more than 64 µg/mL in the assay with Acinetobacter sp.; 0.06 µg/mL (≈ 0.181 µM) against Escherichia coli [6]; more than 64 µg/mL against Escherichia coli [7]; more than 64 µg/mL against Escherichia coli [8]; more than 64 µg/mL in the assay with Pseudomonas aeruginosa [11]. Moreover, the MIC came out at 0.06 µg/mL (≈ 0.181 µM) with Acinetobacter baumannii and 64 µg/mL (≈ 193 µM) against Pseudomonas aeruginosa [3].

As for `C[C@@H](O)[C@H]1C(=O)N2C(C(=O)O)=C(S[C@@H]3CN[C@H](C(=O)N(C)C)C3)[C@H](C)[C@H]12` [MEROPENEM], the MIC50 with Pseudomonas aeruginosa [5] stood at 1 µg/mL (≈ 2.61 µM); in the assay with Acinetobacter sp. it was 1 µg/mL (≈ 2.61 µM); in the assay on Escherichia coli [6] it was 0.03 µg/mL (≈ 0.0782 µM); against Escherichia coli [7], 0.03 µg/mL (≈ 0.0782 µM); against Escherichia coli [8], 0.03 µg/mL (≈ 0.0782 µM); with Klebsiella pneumoniae [12] it was 32 µg/mL (≈ 83.4 µM). In addition, the MIC50 in the assay on Klebsiella pneumoniae [9] and against Klebsiella pneumoniae [10] was 0.03 µg/mL (≈ 0.0782 µM) in each case. The MIC90 is 16 µg/mL (≈ 41.7 µM) against Pseudomonas aeruginosa [5]; 32 µg/mL (≈ 83.4 µM) against Acinetobacter sp.; 0.06 µg/mL (≈ 0.156 µM) against Escherichia coli [6]; 0.06 µg/mL (≈ 0.156 µM) in the assay on Escherichia coli [7]; 0.06 µg/mL (≈ 0.156 µM) with Escherichia coli [8]; more than 64 µg/mL against Klebsiella pneumoniae [12]. Further, the MIC90 in the assay on Klebsiella pneumoniae [9] and in the assay on Klebsiella pneumoniae [10] was 0.25 µg/mL (≈ 0.652 µM) each time. The results for the MIC against Acinetobacter baumannii, against Klebsiella pneumoniae [2] and with Pseudomonas aeruginosa [4] were 0.25 µg/mL (≈ 0.652 µM), 0.25 µg/mL (≈ 0.652 µM) and 2 µg/mL (≈ 5.22 µM), respectively.

One may read the MIC50 as an inhibitory concentration at the 50% level, which refers to growth in some studies and to a panel of isolates in others. Read a high MIC50 as lower susceptibility. What is called MIC90 is an inhibitory concentration at the 90% level, which refers to growth in some studies and to a panel of isolates in others. A higher MIC90 goes with lower susceptibility.
